Data reported in US11484522B2, “Composite formulation and use thereof for preparing drugs for the treatment of tumours” (TIANJIN MEDICAL UNIVERSITY GENERAL HOSPITAL, priority 2018, dated 2022).

Columns and labels:
[1] = test system: HOTAIR target genes; test: qPCR RNA level of HOTAIR target genes in tumor cell lines; format: cell-based
Method: FIG. 2B: The variations in RNA level of a target gene 48 h after treating with 40 nM of 36806 in multiple tumor cell lines.
FIG. 4A: RNA levels change of target genes in glioma and breast cancer cell lines after treating with 40 uM of 36806 for 48 hours.
FIG. 4C: RNA levels change of target genes after treating with low-dose 36806 concentration gradient for 48 hours.
(§1) Therefore, 36806 is capable of inhibiting the binding of HOTAIR to EZH2 at low concentrations and interfering with the recruitment of PRC2 to target genes, to relieve the target genes from silent suppression of histone methylation, thereby altering the function of epigenetic regulation.

[2] = test system: MDA-MB-231 breast cancer orthotopic model; test: Breast cancer orthotopic model established with MDA-MB-231 cell line; format: in vivo, mouse; details: 50 mg/kg intraperitoneal
Text: To further verify the anti-tumor effect of 36806 in vivo, a breast cancer orthotopic model is established by using a MDA-MB-231 cell line. […] The tumor volume measured on the body surface was reduced, and the size and wet weight of the tumor after dissection were reduced as well (FIGS. 6C-6D). […] HE staining confirmed the orthotopic lung metastasis of breast cancer (FIG. 6F). […] The above is consistent with the results of in-vitro experiments, that is, 36806 can inhibit the proliferation and metastasis of breast cancer orthotopic model.
A breast cancer orthotopic model is established by using a MDA-MB-231 cell line. 0.2 mg/kg 36806 in combination with 0.2 mg/kg DZNEP served as a combination group (the molar ratio was about 1:1), 0.2 mg/kg 36806 and 1 mg/kg DZNEP served as single-drug groups, and DMSO served as a control group.

[3] = test system: glioblastoma, breast cancer, melanoma and gastric cancer cell lines; test: Transwell invasion assay; format: cell-based; details: low-dose 40 nM (FIG. 5H)
Text: (§2) Among the three predicted H3K27me3 binding sites in the promoter region of the target gene adenomatous polyposis coli 2 (APC2), sitel is a significant binding region of H3K27me3 (FIG. 5A). After the treatment with 36806, the binding of H3K27me3 in sitel region was weakened, and the binding of RNA polymerase II was strengthened (FIGS. 5B and 5C). […] APC2 is a tumor suppressor gene that can participate in the degradation of beta-catenin by ubiquitination and can inhibit the WNT signal path. The increased expression of APC2 can boost the degradation of beta-catenin. The nucleus-cytoplasm distribution of beta-catenin of cells in the treated group was decreased compared with that of the DMSO group (FIGS. 5D-5F). In this way, the downstream transcription of beta-catenin is inhibited, the expression of downstream EMT-related gene of multiple tumor cell lines is inhibited, and the protein expression is reduced (FIGS. 5G). Therefore, the invasion of tumor cells is weakened (FIG. 5H). Therefore, 36806 can inhibits the WNT signal path, reverses tumor EMT, and reduces tumor invasion and metastasis by increasing the expression level of target gene APC2.

[4] = test system: binding of HOTAIR to the target genes; test: CHIRP experiments, binding of HOTAIR to target genes; details: 40 nM
Text: (§3) Therefore, the inhibiting effect of 36806 on HOTAIR-EZH2 is specific.

[5] = test system: beta-catenin; test: Immunofluorescence and WB of beta-catenin and downstream EMT-related genes; format: cell-based
Text: as §2

[6] = test system: HOTAIR target genes; test: Western blot of protein level of HOTAIR target genes; format: cell-based
Method: as §1
The combination index (CI) of 36806 and DZNEP was measured by CalcuSyn software. […] After the transfection of EZH2 interfering RNA, combined with 36806 treatment, the transcription level of HOTAIR's target genes was higher (FIG. 7C). […] When used in combination with low-dose 36806, the dosage of DZNEP can be reduced by ⅘ (FIG. 7D).

[7] = test system: H3K27me3 in the promoter region of the target genes; test: CHIP experiments, H3K27me3 and RNA polymerase II in promoter region of target genes; format: cell-based
Text: FIG. 3F: Chromatin immunoprecipitation (CHIP) experiments verified that 36806 affected the recruitment of PRC2 by HOTAIR after hindering the binding of HOTAIR to EZH2, such that the level of H3K27me3 in the promoter region of the target genes was reduced and the target genes were transcriptionally activated.
FIG. 5A: The Site1 region before the transcription initiation of APC2 is a transcription promoter region of APC2 and a binding region of H3K27me3.
FIG. 5B: After the treatment with 36806, the binding of H3K27me3 in Site1 region was weakened, and the binding of RNA polymerase II was strengthened.
as §3, §2

[8] = test system: multiple tumor cell lines; details: glioblastoma (U87-MG, LN229, primary N33), breast cancer (MDA-MB-231, MCF-7), HeLa, A375, SGC-7901, MGC-803, HepG2, PC9 cell lines
Method: Toxicity tests were then performed in multiple tumor cell lines.

[9] = 40 uM, 48 hours, glioma and breast cancer cell lines
[10] = low concentration gradient of 10 nM to 10 uM, 48 hours

CC(C)NCC1Cc2cc(Cl)cc(Cl)c2O1 (stereo not drawn) [compound 36806, N-[(5,7-dichloro-2,3-dihydro-1-benzofuran-2-yl)methyl]propan-2-amine]
mRNA level of HOTAIR's target genes HOXD10, PCDH10, PCDHB5, NLK, APC2 [1, 9]: increase | expression level of HOTAIR target genes ([1]; RNA level, 40 nM, 48 h, multiple tumor cell lines): up-regulate | RNA level of the target genes [1, 10]: increased | expression of APC2 (immunofluorescence of tissue sections) [2]: increased | expression of beta-catenin (immunofluorescence of tissue sections) [2]: decreased | expression of target genes HOXD10 and PCDH10 (immunofluorescence of tissue sections) [2]: increased | tumor size (bioluminescence imaging) ([2]; 20 days and 40 days, vs DMSO group): significantly reduced | size and wet weight of the tumor after dissection ([2]; vs DMSO group): reduced | tumor volume measured on the body surface ([2]; vs DMSO group): reduced | probability and scope of lung metastasis ([2]; organ imaging): smaller | invasion of tumor cells [3]: weakened | binding of HOTAIR to the target genes (CHIRP) [4]: without affecting | nucleus-cytoplasm distribution of beta-catenin ([5]; compared with DMSO group): decreased | protein expression of downstream EMT-related genes ([5]; multiple tumor cell lines): reduced | protein level of HOTAIR's target genes HOXD10, PCDH10, PCDHB5, NLK, APC2 [6, 9]: increase | protein level of the target genes, time gradient ([6]; 40 uM, time gradient): changed | protein level of the target genes [6, 10]: increased | level of H3K27me3 in the promoter region of the target genes (CHIP) [7]: reduced | binding of H3K27me3 in site1 region of APC2 promoter ([7]; after treatment with 36806): weakened | binding of RNA polymerase II in site1 region of APC2 promoter ([7]; after treatment with 36806): strengthened | IC50 of 36806 [8]: low
